Source: ChEMBL document CHEMBL2203118, “Ethyl 2,4,6-trihydroxybenzoate is an agonistic ligand for liver X receptor that induces cholesterol efflux from macrophages without affecting lipid accumulation in HepG2 cells” (Bioorg Med Chem Lett, 2012)
The source made the active and inactive calls. No cut-off for these calls is given here.

Assays:
[1] = target: T1, Oxysterols receptor LXR-alpha (Homo sapiens, UniProt Q13133); assay: (§1) Agonist activity at human LXR-alpha assessed as increase in recruitment of Trap 220/Drip2 coactivator peptide by TR-FRET assay; format: functional
T1 sequence (Q13133 whole entry): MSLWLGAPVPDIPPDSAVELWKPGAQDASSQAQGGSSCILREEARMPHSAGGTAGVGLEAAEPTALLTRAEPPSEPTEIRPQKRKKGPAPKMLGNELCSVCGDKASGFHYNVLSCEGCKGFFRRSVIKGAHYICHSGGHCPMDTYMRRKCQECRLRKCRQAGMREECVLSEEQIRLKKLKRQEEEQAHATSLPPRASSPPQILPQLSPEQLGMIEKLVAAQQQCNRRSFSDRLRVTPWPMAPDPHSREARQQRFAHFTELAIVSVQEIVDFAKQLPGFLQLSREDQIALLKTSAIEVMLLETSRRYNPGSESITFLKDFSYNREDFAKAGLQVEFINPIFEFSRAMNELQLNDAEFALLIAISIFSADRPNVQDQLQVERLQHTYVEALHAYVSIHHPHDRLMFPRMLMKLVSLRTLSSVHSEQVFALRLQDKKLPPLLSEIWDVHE

[2] = target: T2, Oxysterols receptor LXR-alpha (Homo sapiens) (UniProt Q13133); assay: as §1; format: functional
T2 sequence (whole entry): T1 sequence (Q13133 whole entry)

HepG2 [3] = assay: Upregulation of FAS gene expression in human HepG2 cells at 50 to 100 uM by qPCR analysis; format: ADME, cell-based; conditions: hepg2, 100 µM
[4] = target: T3, Peroxisome proliferator-activated receptor gamma (Homo sapiens) (UniProt P37231); assay: Transactivation of PPAR-gamma transfected in HEK293 cells at 50 to 100 uM after 24 hrs by luciferase reporter gene assay; format: cell-based
T3 sequence (whole entry): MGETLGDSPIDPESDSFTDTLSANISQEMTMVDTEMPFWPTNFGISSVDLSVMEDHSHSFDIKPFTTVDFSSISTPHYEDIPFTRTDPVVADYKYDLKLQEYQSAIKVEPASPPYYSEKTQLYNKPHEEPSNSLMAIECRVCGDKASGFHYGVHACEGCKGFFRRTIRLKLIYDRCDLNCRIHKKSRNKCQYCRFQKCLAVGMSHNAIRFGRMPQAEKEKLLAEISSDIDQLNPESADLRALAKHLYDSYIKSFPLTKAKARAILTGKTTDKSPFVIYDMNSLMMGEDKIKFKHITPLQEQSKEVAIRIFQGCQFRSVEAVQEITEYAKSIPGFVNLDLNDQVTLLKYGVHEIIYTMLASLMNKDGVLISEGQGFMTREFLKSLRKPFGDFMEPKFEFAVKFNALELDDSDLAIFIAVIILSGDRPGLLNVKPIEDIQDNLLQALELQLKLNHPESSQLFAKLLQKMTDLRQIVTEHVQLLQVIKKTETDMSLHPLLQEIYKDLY

HepG2 [5] = assay: Induction of lipid accumulation in human HepG2 cells assessed as increase in cellular triglyceride level at 50 to 100 uM by Oil Red O staining relative to control; format: cell-based; conditions: hepg2, 100 µM
[6] = target: T4, Liver X receptor (Homo sapiens) (UniProt Q13133+P55055); assay: Agonist activity at LXR in human Caco2 cells assessed as increase in ABCG5 mRNA level at 100 uM after 48 hrs by qPCR analysis relative to control; format: functional, cell-based; conditions: Caco-2
[7] = target: T4, Liver X receptor (Homo sapiens); assay: Agonist activity at LXR in human THP1 cells assessed as induction of ABCG1 gene expression at 100 uM after 48 hrs by immunoblot analysis relative to control; format: functional, cell-based; conditions: THP-1
[8] = target: T4, Liver X receptor (Homo sapiens); assay: Agonist activity at LXR in human Caco2 cells assessed as decrease in NPC1L1 mRNA level at 100 uM after 48 hrs by qPCR analysis relative to control; format: functional, cell-based; set-up: scale not given: the % may be the effect or the level left; conditions: Caco-2
HepG2 [9] = assay: Upregulation of SREBP-1 gene expression in human HepG2 cells at 50 to 100 uM by immunoblot analysis; format: ADME, cell-based; conditions: hepg2, 100 µM
[10] = target: T2, Oxysterols receptor LXR-alpha (Homo sapiens); assay: Agonist activity at LXR-alpha in human Caco2 cells assessed as reduction in cellular cholesterol level; format: functional, cell-based; conditions: Caco-2
HepG2 [11] = assay: Cytotoxicity against human HepG2 cells after 48 hrs by MTT assay; format: cell-based; conditions: hepg2, 48 h
[12] = target: T2, Oxysterols receptor LXR-alpha (Homo sapiens); assay: Binding affinity to human LXR-alpha LBD by SPR-Biacore assay
HepG2 [13] = assay: Reduction in SCD-1 gene expression in human HepG2 cells at 100 uM by qPCR analysis relative to control; format: functional; set-up: scale not given: the % may be the effect or the level left
[14] = target: T5, Oxysterols receptor LXR-alpha (Mus musculus) (UniProt Q9Z0Y9); assay: Agonist activity at LXR-alpha in mouse RAW264.7 cells assessed as reduction in cellular cholesterol level; format: functional, cell-based
T5 sequence (whole entry): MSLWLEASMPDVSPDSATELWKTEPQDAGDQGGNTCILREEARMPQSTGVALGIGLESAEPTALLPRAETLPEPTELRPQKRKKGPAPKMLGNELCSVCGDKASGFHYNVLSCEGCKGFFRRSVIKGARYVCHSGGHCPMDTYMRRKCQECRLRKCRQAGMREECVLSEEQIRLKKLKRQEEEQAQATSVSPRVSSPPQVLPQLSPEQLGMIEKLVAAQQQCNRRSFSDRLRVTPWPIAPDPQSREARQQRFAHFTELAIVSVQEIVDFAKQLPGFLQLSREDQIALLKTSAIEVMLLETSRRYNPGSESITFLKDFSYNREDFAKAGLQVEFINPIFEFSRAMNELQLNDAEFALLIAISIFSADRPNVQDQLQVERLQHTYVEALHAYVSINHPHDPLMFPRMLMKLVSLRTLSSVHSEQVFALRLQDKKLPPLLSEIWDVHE

[15] = target: T2, Oxysterols receptor LXR-alpha (Homo sapiens); assay: Agonist activity at LXR-alpha in human THP1 cells assessed as increase cholesterol efflux to HDL by FACs analysis; format: functional, cell-based; conditions: THP-1
[16] = target: T2, Oxysterols receptor LXR-alpha (Homo sapiens); assay: Agonist activity at LXR-alpha in human HepG2 cells assessed as reduction in cellular cholesterol level; format: functional, cell-based
HepG2 [17] = assay: Upregulation of SREBP-1 gene expression in human HepG2 cells at 50 to 100 uM by qPCR analysis relative to control relative to control; format: ADME, cell-based; conditions: hepg2, 100 µM
[18] = target: T4, Liver X receptor (Homo sapiens); assay: Agonist activity at LXR in human THP1 cells assessed as induction of ABCA1 gene expression after 48 hrs by qPCR analysis; format: functional, cell-based; conditions: THP-1
[19] = target: T2, Oxysterols receptor LXR-alpha (Homo sapiens); assay: Agonist activity at LXR-alpha in human THP1 cells assessed as reduced cellular cholesterol concentration; format: functional, cell-based; conditions: THP-1
[20] = target: T4, Liver X receptor (Homo sapiens); assay: Agonist activity at LXR in human THP1 monocytes assessed as increase in ABCG1 mRNA level at 100 uM after 48 hrs by qPCR analysis relative to control; format: functional, cell-based
[21] = target: T6, Peroxisome proliferator-activated receptor alpha (Homo sapiens) (UniProt Q07869); assay: Transactivation of PPAR-alpha transfected in HEK293 cells at 50 to 100 uM after 24 hrs by luciferase reporter gene assay; format: cell-based
T6 sequence (whole entry): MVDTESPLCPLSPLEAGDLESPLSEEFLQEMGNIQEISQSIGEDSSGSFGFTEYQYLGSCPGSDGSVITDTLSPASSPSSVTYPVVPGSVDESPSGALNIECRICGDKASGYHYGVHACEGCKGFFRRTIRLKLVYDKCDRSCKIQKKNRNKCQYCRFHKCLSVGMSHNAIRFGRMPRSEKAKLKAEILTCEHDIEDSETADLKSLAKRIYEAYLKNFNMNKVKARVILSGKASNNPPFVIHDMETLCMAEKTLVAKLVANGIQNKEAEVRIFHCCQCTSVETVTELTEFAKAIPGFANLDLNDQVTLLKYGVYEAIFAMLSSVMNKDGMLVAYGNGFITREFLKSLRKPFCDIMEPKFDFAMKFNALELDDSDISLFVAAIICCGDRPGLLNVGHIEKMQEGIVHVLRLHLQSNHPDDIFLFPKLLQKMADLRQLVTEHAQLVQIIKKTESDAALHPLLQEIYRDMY

[22] = target: T7, Oxysterols receptor LXR-beta (Homo sapiens, UniProt P55055); assay: Transactivation of human LXR-beta transfected in HEK293 cells after 24 hrs by luciferase reporter gene assay; format: cell-based
T7 sequence (P55055 whole entry): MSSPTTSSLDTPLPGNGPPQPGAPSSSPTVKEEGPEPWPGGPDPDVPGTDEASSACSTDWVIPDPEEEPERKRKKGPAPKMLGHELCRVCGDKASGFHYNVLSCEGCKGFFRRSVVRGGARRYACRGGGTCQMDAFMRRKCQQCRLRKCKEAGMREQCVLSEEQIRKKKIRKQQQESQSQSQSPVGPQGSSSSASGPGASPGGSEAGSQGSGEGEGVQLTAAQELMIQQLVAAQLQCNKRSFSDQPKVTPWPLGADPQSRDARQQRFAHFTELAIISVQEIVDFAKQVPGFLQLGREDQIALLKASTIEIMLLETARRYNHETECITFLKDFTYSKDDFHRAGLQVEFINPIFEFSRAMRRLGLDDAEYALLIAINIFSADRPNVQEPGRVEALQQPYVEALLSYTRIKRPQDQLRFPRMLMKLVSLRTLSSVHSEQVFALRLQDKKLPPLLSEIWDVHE

EC50 [1]: 1.5 µM
Activity [2]: Dose-dependent effect
Activity [4]: inactive
fold change (FC) [6]: 12.6
Activity [7]: Active
Activity [8]: 33.2%
Activity [10]: Dose-dependent effect
Activity [12]: Active
Activity [14]: Dose-dependent effect
Activity [15]: Dose-dependent effect
Activity [16]: Dose-dependent effect
Activity [18]: Dose-dependent effect
Activity [19]: Dose-dependent effect
fold change (FC) [20]: 5.2
Activity [21]: inactive
EC50 [22]: 37.8 µM
SMILES: CCOC(=O)c1c(O)cc(O)cc1O
Activity (HepG2 [3]): Non-toxic
Activity (HepG2 [5]): Non-toxic
Activity (HepG2 [9]): Non-toxic
Activity (HepG2 [11]): Non-toxic
Activity (HepG2 [13]): 54.09%
Activity (HepG2 [17]): Non-toxic
